From US20230203043A1, “NOVEL IMIDAZOPYRAZINE DERIVATIVES” (Hoffmann-La Roche Inc., priority 2020, published 2023) come the findings set out here.

For this test, the system named is Acinetobacter baumannii ATCC17961. Briefly: Antimicrobial susceptibility testing: 90% growth inhibitory concentration (IC90) determination in Iso-Sensitest broth, OD600 growth. It is filed as cell-based. The settings on record: Acinetobacter baumannii, ATCC17961, 16 h. The essentials:
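Serial twofold dilution, 10 points, e.g. 50–0.097 μM final; ~5×10^(5) CFU/ml; 35±2° C, 16 h; kinetic OD600 every 20 min; IC90 from log-phase inhibition.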

Where [1] appears, read: read-out: A. baumannii ATCC 17961 IC90 (uM), strain ATCC 17961, OD600 growth over 16 h.
The mark [2] stands for this setting: strain ATCC 17961, OD600 growth over 16 h, read-out: A. baumannii ATCC 17961 IC90.

The structures appear in SMILES notation. Where a name gives a salt, the structure may show the parent alone. Read-outs that look alike come from different tables or passages of the source.

Take `CCc1cc(Nc2nccn3c(-c4cn(CC(F)F)nc4C(F)(F)F)cnc23)ccc1C(=O)NCCCNC(=O)[C@H]1CC[C@@H](N)C1` [Example 485, N-(3-((1S,3R)-3-aminocyclopentane-1-carboxamido)propsl)-4-((3-(1-(2,2-difluoroethyl)-3-(trifluoromethyl)-1H-pyrazol-4-yl)imidazo[1,2-a]pyrazin-8-yl)amino)-2-ethylbenzamide formate]: the IC90 under setting [1] came to 0.189 µM.

Consider `CCc1cc(Nc2nccn3c(-c4cn(CCF)nc4C(F)(F)F)cnc23)ccc1C(=O)N[C@@H](C)CN` [Example 65, N-[(2S)-1-aminopropan-2-yl]-2-ethyl-4-[[3-[1-(2-fluoroethyl)-3-(trifluoromethyl)pyrazol-4-yl]imidazo[1,2-a]pyrazin-8-yl]amino]benzamide], for which the IC90 under setting [2] is 0.339 µM. On to `O=C(c1ccc(Nc2nccn3c(-c4c[nH]nc4C(F)(F)F)cnc23)cc1Cl)N1CCN(C(=O)[C@H]2CCNC[C@H]2O)CC1` [Example 451, [2-chloro-4-[[3-[3-(trifluoromethyl)-1H-pyrazol-4-yl]imidazo[1,2-a]pyrazin-8-yl]amino]phenyl]-[4-[(3S,4S)-3-hydroxypiperidine-4-carbonyl]piperazin-1-yl]methanone formate], for which the IC90 under setting [1] worked out at 0.365 µM.

On to `N#CCn1cc(-c2cnc3c(Nc4ccc(C(=O)N5CCC(N)CC5)c(Cl)c4)nccn23)c(C(F)(F)F)n1` [Example 202, 2-[4-[8-[4-(4-aminopiperidine-1-carbonyl)-3-chloroanilino]imidazo[1,2-a]pyrazin-3-yl]-3-(trifluoromethyl)pyrazol-1-yl]acetonitrile], for which, under setting [2], the IC90 came out at 0.109 µM. As for `CCc1cc(Nc2nccn3c(-c4cn(CC#N)nc4C(F)(F)F)cnc23)ccc1C(=O)NCCNC(=O)[C@@H]1CC[C@@H](N)C1` [Example 587, N-(2-((1R,3R)-3-aminocyclopentane-1-carboxamido)ethyl)-4-((3-(1-(cyanomethyl)-3-(trifluoromethyl)-1H-pyrazol-4-yl)imidazo[1,2-a]pyrazin-8-yl)amino)-2-ethylbenzamide formate], the IC90 under setting [1] came to 0.221 µM. In the case of `Cc1cc(Nc2nccn3c(-c4c[nH]nc4C(F)(F)F)cnc23)ccc1C(=O)N1CCN(C(=O)CCCN)CC1` [Example 420, 4-amino-1-[4-[2-methyl-4-[[3-[3-(trifluoromethyl)-1H-pyrazol-4-yl]imidazo[1,2-a]pyrazin-8-yl]amino]benzoyl]piperazin-1-yl]butan-1-one], the IC90 under setting [2] was found to be 0.746 µM. As to `CCc1cc(Nc2nccn3c(-c4cn(CCCO)nc4C(F)(F)F)cnc23)ccc1C(=O)NCCOCCN` [Example 312, N-[2-(2-aminoethoxy)ethyl]-2-ethyl-4-[[3-[1-(3-hydroxypropyl)-3-(trifluoromethyl)pyrazol-4-yl]imidazo[1,2-a]pyrazin-8-yl]amino]benzamide formate], the IC90 under setting [1] is 0.839 µM. `O=C(N[C@H]1CNC[C@@H]1O)N1CCN(C(=O)c2ccc(Nc3nccn4c(-c5c[nH]nc5C(F)(F)F)cnc34)cc2Cl)CC1` [Example 440, 4-[2-chloro-4-[[3-[3-(trifluoromethyl)-1H-pyrazol-4-yl]imidazo[1,2-a]pyrazin-8-yl]amino]benzoyl]-N-[(3S,4S)-4-hydroxypyrrolidin-3-yl]piperazine-1-carboxamide formate]: the IC90 under setting [1] stood at 0.497 µM. In the case of `Cc1cc(Nc2nccn3c(-c4cn(CC#N)nc4C(F)(F)F)cnc23)ccc1C(=O)NCC(=O)N1CCNCC1` [Example 706, 4-[[3-[1-(cyanomethyl)-3-(trifluoromethyl)pyrazol-4-yl]imidazo[1,2-a]pyrazin-8-yl]amino]-2-methyl-N-(2-oxo-2-piperazin-1-yl-ethyl) benzamide formate], the IC90 under setting [2] amounted to 0.394 µM. On the same count and under the same terms, in the case of `C=CCn1cc(-c2cnc3c(Nc4ccc(C(=O)N5CCC(CN)CC5)c(CC)c4)nccn23)c(C(F)(F)F)n1` [Example 53, [4-(aminomethyl)piperidin-1-yl]-[2-ethyl-4-[[3-[1-prop-2-enyl-3-(trifluoromethyl)pyrazol-4-yl]imidazo[1,2-a]pyrazin-8-yl]amino]phenyl] methanone] it was 0.157 µM.

Broadly, the IC90 is the concentration at which the effect reaches the 90% level.
